According to the Biogen ADME set (Fang et al. 2023):
In brackets after ≈: the same amount, converted by molar mass.

Conditions: for aqueous solubility: pH 6.8

MDR1-MDCK efflux ratio | intrinsic clearance, human liver microsomes [mL/min/kg] | intrinsic clearance, rat liver microsomes [mL/min/kg] | aqueous solubility [µg/mL] | fraction unbound, human plasma | fraction unbound, rat plasma | SMILES
3.73 | 155 | 1510 | 30.2 (≈ 79.9 µM) |  |  | Cc1ccc(CNC(=O)CN2CCC(n3nnc4cc(C)ccc43)CC2)cc1
0.684 | 71.2 | 631 |  |  |  | Cc1ccc(=O)n(CCOc2ccc(Cl)c(F)c2)n1
0.556 | ≤ 4.74 | 109 |  |  |  | CCc1nc(CNc2ccc(C#N)nc2)cs1
0.557 | 90 | 280 | 30.4 (≈ 123 µM) |  |  | Cc1ccccc1C(=O)Nc1nc(C)c(C)s1
 | ≤ 4.74 | ≤ 10.7 | 59.4 (≈ 219 µM) |  |  | CC(=O)NCc1ncc(-c2ccccc2C(=O)O)cn1
2.26 | 400 | 1630 | 29.2 (≈ 78.4 µM) | 0.0351 | 0.0289 | Fc1ccccc1-c1c[nH]nc1C1CCCN1Cc1ccc2ncccc2c1 (configuration not stated)
0.67 | ≤ 4.74 | ≤ 10.7 | 40.6 (≈ 177 µM) |  |  | Cc1ccc(CNC(=O)c2cccnc2)n1C
3.5 | ≤ 4.74 | 34 | 21.9 (≈ 80.9 µM) |  |  | CCCc1nnc(NCc2cn3ccc(C)cc3n2)o1
 | 4.93 | 2200 | 39.1 (≈ 146 µM) |  |  | Cc1cccc(OCCn2c(N)nc3ccccc32)c1
0.593 | 7.18 | ≤ 10.7 | 32.2 (≈ 140 µM) |  |  | CCn1cc(NC(=O)c2ccccc2C)cn1
1.27 | 11.9 | 146 | 5.17 (≈ 14.2 µM) |  |  | Cn1c(=O)c2c(nc3n2CCN3Cc2c(F)cccc2Cl)n(C)c1=O
18.5 | ≤ 4.74 | 17.3 |  |  |  | CCc1nccn1Cc1nc(N)nc(N(C)C)n1
1.9 | ≤ 4.74 | 80.8 |  |  |  | CC(=O)N1CCC(CNc2nccc3cccnc23)CC1
0.716 | 359 | 1950 | 55.5 (≈ 154 µM) |  |  | COc1ccccc1NC(=O)CN1CCCN(c2nc(C)cs2)CC1
0.587 | 111 | 169 | 22.6 (≈ 99.4 µM) |  |  | CCc1oc2c(-n3cnnc3)cccc2c1C

The remaining lines, values behind:

SMILES | MDR1-MDCK efflux ratio | intrinsic clearance, human liver microsomes [mL/min/kg] | intrinsic clearance, rat liver microsomes [mL/min/kg] | aqueous solubility [µg/mL] | fraction unbound, human plasma | fraction unbound, rat plasma
COCc1nn(CCCN2CCCCC2)c(=O)o1 | 0.662 | ≤ 4.74 | 370 |  |  | 
O=S(=O)(Nc1cccc(-c2nc3ccccc3[nH]2)c1)c1ccc(Cl)cc1 | 10.7 | 20 | 2940 | 4.89 (≈ 12.7 µM) |  | 
CONC(=O)c1c(C)nn(C)c1Cl | 0.868 | ≤ 4.74 | ≤ 10.7 |  |  | 
CCCC(=O)Nc1cnc(N2CCN(C)CC2)nc1 | 1.39 | ≤ 4.74 | 34.4 | 35.3 (≈ 134 µM) |  | 
O=C(CN1CCCc2ccc(F)cc21)N1CCNC1=O | 0.896 | ≤ 4.74 | 61.3 | 45.1 (≈ 163 µM) |  | 
CC(=O)c1c(C)n(S(=O)(=O)c2ccc(C)cc2)c2ccc(NS(=O)(=O)c3ccc(C)cc3)cc12 |  |  |  | 0.53 (≈ 1.07 µM) |  | 
Cn1c(=O)c(C(=O)CSc2nc3ccccc3n2C)c(N)n(Cc2ccccc2)c1=O | 13 | 839 | 2400 |  |  | 
CC(=O)N1CCN(C(=O)c2ccc(-c3ccc(F)cc3)cc2F)CC1 | 1.47 | ≤ 4.74 | 20 | 74.5 (≈ 216 µM) |  | 
CNCc1cc(N(C)C)nc(C2CCCN2C(=O)C2CCCC2)n1 (configuration not stated) | 45.6 | ≤ 4.74 | 249 |  |  | 
CCC(CC)N1CC[C@H](O)[C@@](O)(COc2cc(C)ccc2Cl)C1 | 1.18 | 371 | 4650 |  |  | 
CC(C)(C)n1ncc(OCc2ccc(OCCOCCO)nc2)c(Cl)c1=O | 4.55 | 8.19 | 88.1 | 32.5 (≈ 81.7 µM) |  | 
